{"source": "paper PMC3277506", "about": "“Extra-Renal Elimination of Uric Acid via Intestinal Efflux Transporter BCRP/ABCG2” (PLoS ONE, 2012)", "key": {"hBCRP [1]": {"target": "T1, hBCRP (Homo sapiens, UniProt Q9UNQ0)", "T1 construct": "purchased GenoMembrane Inc. (Yokohama, Japan); host or cells: Sf9 cells", "T1 sequence (Q9UNQ0 1-655)": "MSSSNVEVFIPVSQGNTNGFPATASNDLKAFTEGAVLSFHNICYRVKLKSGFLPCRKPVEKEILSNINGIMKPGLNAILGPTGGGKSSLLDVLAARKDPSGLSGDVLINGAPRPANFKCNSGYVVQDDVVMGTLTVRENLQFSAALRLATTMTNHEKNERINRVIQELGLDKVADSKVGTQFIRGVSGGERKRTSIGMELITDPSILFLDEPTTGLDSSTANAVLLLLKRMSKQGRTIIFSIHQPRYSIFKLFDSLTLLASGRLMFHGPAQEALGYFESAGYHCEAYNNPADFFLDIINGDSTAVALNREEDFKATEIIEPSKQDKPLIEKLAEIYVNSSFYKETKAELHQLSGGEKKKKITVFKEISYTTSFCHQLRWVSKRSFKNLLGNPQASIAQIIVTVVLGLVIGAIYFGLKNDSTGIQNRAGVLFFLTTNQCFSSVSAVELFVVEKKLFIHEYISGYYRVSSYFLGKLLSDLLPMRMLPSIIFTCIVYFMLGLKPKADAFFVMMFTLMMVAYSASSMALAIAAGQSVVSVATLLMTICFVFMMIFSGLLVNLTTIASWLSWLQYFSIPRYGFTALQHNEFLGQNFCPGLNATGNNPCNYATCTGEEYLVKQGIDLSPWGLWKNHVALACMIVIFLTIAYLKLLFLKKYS", "assay": "[14C]uric acid uptake by hBCRP-expressing membrane vesicles", "type": "biochemical", "details": "[14C]uric acid 20 µM, 5 min, 37°C, 4 mM ATP or AMP", "protocol": "(§1) hBCRP/rBcrp, hMRP2/rMrp2, or hMDR1-expressing membrane vesicles prepared from Sf9 cells were purchased from GenoMembrane Inc. (Yokohama, Japan). Uptake experiments were conducted as described previously. Briefly, after a pre-incubation for 5 min at 37°C, membrane vesicles (50 µg protein/50 µL final reaction volume) were incubated for 5 min at 37°C in the presence of 4 mM ATP or AMP in assay buffer (1 M KCl, 1 M MgCl2, and 100 mM MOPS-Tris, pH 7.0) containing [^14C]uric acid (1 µCi/mL). The uptake reaction was terminated by adding 1 mL ice-cold washing buffer (1 M KCl, and 100 mM MOPS-Tris, pH 7.0) to the membrane solution, and the mixture was rapidly filtered through a nitrocellulose filter (0.45 µm pore size, Millipore, Bedford, MA). The filters were washed twice with 5 mL ice-cold washing buffer. The filters were dried and dissolved in Clearsol-I for quantitation of radioactivity."}, "[2]": {"details": "humans; cited from earlier work"}, "[3]": {"assay": "Bidirectional transcellular transport of [14C]uric acid in Caco-2 cells", "type": "in vitro ADME, human", "details": "human, Control (no inhibitor)", "protocol": "Caco-2 cells were obtained from the American Type Culture Collection (Rockville, MD). Caco-2 cells were cultured in Dulbecco's modified Eagle's medium (D-MEM) (Invitrogen, Carlsbad, CA) supplemented with 10% (v/v) fetal bovine serum (Invitrogen), 100 units/mL benzylpenicillin, 100 µg/mL streptomycin, 1% (v/v) MEM non-essential amino acid solution (Invitrogen) at 37°C under an atmosphere of 5% CO2 in air. For bidirectional transport studies, Caco-2 cells were cultured on Transwell filter membrane inserts (BD Falcon, surface area 0.9 cm^2 and pore size 3 µm) at a density of 6.4×10^4 cells/cm^2 for 21 days before use for each experiment. […] Inhibitor was added to only apical side. Transport of [^14C]uric acid was measured in two directions, namely apical (AP)-to-basal (BL) and BL-to-AP directions. An aliquot of transport buffer was obtained from the donor side at 5 min for measurement of initial concentration, and from the receiver side at 30, 60, 90 and 120 min. Transport studies were performed at 37°C and pH 7.4.\nThe apparent permeability (Papp, cm/sec) of [^14C]uric acid across the cell monolayer was calculated using the following equation: [drawing 4] where Q is the amount of [^14C]uric acid transported over time t. Cd is the initial concentration in the donor side and A is the surface area of membrane."}, "rMrp2": {"target": "T2, rMrp2 (Rattus norvegicus, UniProt Q63120)", "T2 construct": "purchased GenoMembrane Inc. (Yokohama, Japan); host or cells: Sf9 cells", "T2 sequence (Q63120 whole entry)": "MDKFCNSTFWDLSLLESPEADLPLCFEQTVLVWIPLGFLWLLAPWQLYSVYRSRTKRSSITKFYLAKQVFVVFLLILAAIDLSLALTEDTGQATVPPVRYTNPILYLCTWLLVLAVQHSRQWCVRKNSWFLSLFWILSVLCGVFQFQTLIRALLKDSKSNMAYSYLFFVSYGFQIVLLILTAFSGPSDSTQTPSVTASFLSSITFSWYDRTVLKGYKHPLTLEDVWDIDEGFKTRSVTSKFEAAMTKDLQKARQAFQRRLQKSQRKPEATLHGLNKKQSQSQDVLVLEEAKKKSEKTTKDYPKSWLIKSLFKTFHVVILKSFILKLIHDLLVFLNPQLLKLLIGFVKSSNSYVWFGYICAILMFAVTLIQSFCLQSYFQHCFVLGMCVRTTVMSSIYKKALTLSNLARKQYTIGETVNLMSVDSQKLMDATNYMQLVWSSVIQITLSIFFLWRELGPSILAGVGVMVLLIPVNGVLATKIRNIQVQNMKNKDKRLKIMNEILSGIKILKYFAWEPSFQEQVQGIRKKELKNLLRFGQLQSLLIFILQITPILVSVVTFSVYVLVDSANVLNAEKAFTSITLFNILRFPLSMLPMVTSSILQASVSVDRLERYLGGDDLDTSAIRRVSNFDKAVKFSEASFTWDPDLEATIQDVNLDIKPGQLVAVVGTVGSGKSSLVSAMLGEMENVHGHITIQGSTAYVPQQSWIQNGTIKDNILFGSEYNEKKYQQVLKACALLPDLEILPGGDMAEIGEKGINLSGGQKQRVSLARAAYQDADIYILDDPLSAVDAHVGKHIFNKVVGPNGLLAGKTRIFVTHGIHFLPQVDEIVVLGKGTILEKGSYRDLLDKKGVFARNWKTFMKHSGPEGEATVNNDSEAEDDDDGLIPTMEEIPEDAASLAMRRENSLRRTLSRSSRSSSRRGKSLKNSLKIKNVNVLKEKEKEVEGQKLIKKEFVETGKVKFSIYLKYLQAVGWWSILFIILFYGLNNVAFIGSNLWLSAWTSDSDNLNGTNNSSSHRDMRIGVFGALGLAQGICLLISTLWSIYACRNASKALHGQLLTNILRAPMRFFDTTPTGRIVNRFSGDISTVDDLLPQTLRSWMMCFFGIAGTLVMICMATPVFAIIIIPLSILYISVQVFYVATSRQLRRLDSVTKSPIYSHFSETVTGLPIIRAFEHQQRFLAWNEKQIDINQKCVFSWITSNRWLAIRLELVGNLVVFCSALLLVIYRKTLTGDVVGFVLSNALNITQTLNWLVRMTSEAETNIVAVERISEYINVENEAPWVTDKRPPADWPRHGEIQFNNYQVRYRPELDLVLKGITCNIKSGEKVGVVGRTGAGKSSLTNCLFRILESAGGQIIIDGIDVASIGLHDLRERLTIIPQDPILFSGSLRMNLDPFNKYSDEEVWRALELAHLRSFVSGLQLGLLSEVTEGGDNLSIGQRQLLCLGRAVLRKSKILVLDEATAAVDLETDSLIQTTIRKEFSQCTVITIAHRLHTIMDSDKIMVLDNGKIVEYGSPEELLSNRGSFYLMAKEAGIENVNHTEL", "assay": "[14C]uric acid uptake by rMrp2-expressing membrane vesicles", "type": "biochemical", "details": "[14C]uric acid 20 µM, 5 min, 37°C, 4 mM ATP or AMP", "protocol": "as §1"}, "hBCRP [4]": {"target": "T1, hBCRP", "parameters": "method as in PMID 20368174", "details": "read-out: Km of uric acid to hBCRP; cited from earlier work"}}}
{"smiles": "O=c1[nH]c(=O)c2[nH]c(=O)[nH]c2[nH]1", "note": "[uric acid]", "values": [{"measurement": "Uptake of uric acid in the presence of ATP versus AMP", "setting": "hBCRP [1]", "result": "significantly higher"}, {"measurement": "Biliary clearance of uric acid", "setting": "[2]", "result": "0.1 to 0.3", "unit": "mL/min"}, {"measurement": "Uric acid concentration in bile", "setting": "[2]", "result": "1 to 2", "unit": "mg/dL"}, {"measurement": "Urinary clearance of uric acid", "setting": "[2]", "result": "5.8 to 6.3", "unit": "mL/min"}, {"measurement": "efflux ratio at 120 min", "setting": "[3]; Caco-2, pH 7.4, BL-to-AP / AP-to-BL permeability", "result": "2.13 ± 0.19"}, {"measurement": "Papp A→B at 120 min", "setting": "[3]; Caco-2 monolayer, 37°C, pH 7.4, read-out: Permeability AP to BL", "result": "0.81 ± 0.02", "unit": "×10⁻⁶ cm/s"}, {"measurement": "Papp B→A at 120 min", "setting": "[3]; Caco-2 monolayer, 37°C, pH 7.4, read-out: Permeability BL to AP", "result": "1.73 ± 0.11", "unit": "×10⁻⁶ cm/s"}, {"measurement": "ATP-dependent uric acid uptake", "setting": "rMrp2", "result": "Slight"}, {"measurement": "Km", "setting": "hBCRP [4]", "result": 8.24, "unit": "mM"}]}
